Results reported in ChEMBL document CHEMBL1201862, “PubChem BioAssay data set” (2004).
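Exposure lasted 48 hours, with cells grown in 96-well plates and compounds tested at five concentrations. GI50 = concentration required for 50% inhibition of growth.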 Calls of active or inactive are those of the source. Rule as the data show it: active = GI50 up to about 1.1 µM and inactive = higher.

Experiments:
Test in all cases: NCI anticancer screen, dose series, 48 h
M14 = system: M14
HCT-116 = system: HCT-116
SF-539 = system: SF-539
HOP-62 = system: HOP-62
HL-60 = system: HL-60
MDA-MB-435 = system: MDA-MB-435
DU-145 = system: DU-145
HOP-92 = system: HOP-92
MOLT-4 = system: MOLT-4
RXF 393 = system: RXF 393
SN12C = system: SN12C
CAKI-1 = system: CAKI-1
SF-268 = system: SF-268
COLO 205 = system: COLO 205
LOX IMVI = system: LOX IMVI
NCI-H460 = system: NCI-H460
OVCAR-5 = system: OVCAR-5
U-251 = system: U-251
MDA-MB-231 = system: MDA-MB-231
SR = system: SR

Measured: GI50

N#CC(c1ccccc1)N1CCCN(C(C#N)c2ccccc2)C1c1ccccc1O (centres undefined)
active: HL-60 0.0362 µM
inactive: M14 > 100 µM | HCT-116 93.5 µM | SF-539 52.1 µM | HOP-62 > 100 µM | MDA-MB-435 > 100 µM | DU-145 > 100 µM | HOP-92 22.7 µM | MOLT-4 61.1 µM | RXF 393 > 100 µM | SN12C > 100 µM | CAKI-1 > 100 µM | SF-268 > 100 µM | COLO 205 > 100 µM | LOX IMVI > 100 µM | NCI-H460 > 100 µM | OVCAR-5 > 100 µM | U-251 > 100 µM | MDA-MB-231 > 100 µM | SR > 100 µM

N#Cc1ccccc1OCCOc1ccccc1C#N
inactive: M14 > 100 µM | HCT-116 > 100 µM | SF-539 26.1 µM | HOP-62 > 100 µM | HL-60 > 100 µM | MDA-MB-435 > 100 µM | DU-145 > 100 µM | HOP-92 > 100 µM | MOLT-4 > 100 µM | RXF 393 > 100 µM | SN12C > 100 µM | CAKI-1 > 100 µM | SF-268 > 100 µM | COLO 205 > 100 µM | LOX IMVI > 100 µM | NCI-H460 > 100 µM | OVCAR-5 > 100 µM | U-251 61 µM | MDA-MB-231 > 100 µM | SR > 100 µM

Clc1ccc(C2C3COc4ccccc4C3=NN2c2ccccc2)cc1 (centres undefined)
active: SR 0.198 µM
inactive: M14 96.8 µM | HCT-116 33.2 µM | SF-539 34.4 µM | HOP-62 > 100 µM | HL-60 27.4 µM | MDA-MB-435 36.5 µM | DU-145 > 80.5 µM | HOP-92 > 100 µM | MOLT-4 8.73 µM | RXF 393 95.5 µM | SN12C 43.6 µM | CAKI-1 58.9 µM | SF-268 44.7 µM | COLO 205 > 100 µM | LOX IMVI 7.19 µM | NCI-H460 > 100 µM | OVCAR-5 > 100 µM | U-251 36.1 µM | MDA-MB-231 59.3 µM

COC1=CCC2=C(CCN(C(=O)C3CC3)C2Cc2ccc(OC)c(O)c2)C1 (centres undefined)
inactive: M14 45 µM | HCT-116 36.6 µM | SF-539 67 µM | HOP-62 61.8 µM | HL-60 26.7 µM | MDA-MB-435 23.9 µM | DU-145 > 100 µM | HOP-92 27.9 µM | MOLT-4 8.67 µM | RXF 393 13.5 µM | SN12C 49.3 µM | CAKI-1 83.4 µM | SF-268 51.1 µM | COLO 205 51.5 µM | LOX IMVI 86.7 µM | NCI-H460 42 µM | OVCAR-5 > 100 µM | U-251 86.7 µM | MDA-MB-231 63.2 µM | SR 4.8 µM

CC(C)=CC(=O)c1[nH]c2ccccc2c1CC(=O)NCCc1cn(C(c2ccccc2)(c2ccccc2)c2ccccc2)cn1
active: SR 0.979 µM
inactive: M14 2.02 µM | HCT-116 2.77 µM | SF-539 2.69 µM | HOP-62 11.9 µM | HL-60 1.26 µM | MDA-MB-435 2.06 µM | DU-145 5.13 µM | HOP-92 2.49 µM | MOLT-4 2.26 µM | RXF 393 2.81 µM | SN12C 2.81 µM | CAKI-1 7.87 µM | SF-268 16.8 µM | COLO 205 1.81 µM | LOX IMVI 2.02 µM | NCI-H460 2.97 µM | OVCAR-5 3.39 µM | U-251 2.82 µM | MDA-MB-231 2.16 µM

C/C(=N\NC(=S)NCCNC(=S)N/N=C(\C)c1ccccn1)c1ccccn1
inactive: M14 1.5 µM | HCT-116 2.75 µM | SF-539 2.36 µM | HOP-62 1.83 µM | MDA-MB-435 3.91 µM | DU-145 2.32 µM | HOP-92 3.91 µM | MOLT-4 2.15 µM | RXF 393 3.16 µM | SN12C 1.94 µM | CAKI-1 3.42 µM | SF-268 1.9 µM | COLO 205 2.09 µM | LOX IMVI 1.89 µM | NCI-H460 1.61 µM | OVCAR-5 3.98 µM | U-251 2.43 µM | MDA-MB-231 > 20.9 µM
active: HL-60 0.789 µM | SR 0.514 µM

Clc1ccc(-c2ccc(-c3nnc(CCc4nnc(-c5ccc(-c6ccc(Cl)cc6)o5)o4)o3)o2)cc1
inactive: M14 > 100 µM | HCT-116 > 100 µM | SF-539 27.3 µM | HOP-62 > 50.8 µM | HL-60 4.81 µM | MDA-MB-435 > 100 µM | DU-145 > 100 µM | HOP-92 > 27.5 µM | MOLT-4 3.81 µM | RXF 393 25.8 µM | SN12C > 100 µM | CAKI-1 > 100 µM | SF-268 28.6 µM | COLO 205 > 100 µM | LOX IMVI > 100 µM | NCI-H460 > 100 µM | OVCAR-5 > 100 µM | U-251 17.1 µM | MDA-MB-231 28.3 µM
active: SR 0.276 µM

CC(=O)O[C@H]1C(=O)[C@@]2(C)[C@H]([C@H](OC(=O)c3ccccc3)[C@@]3(O)C[C@H](O)C(C)=C1C3(C)C)[C@]1(OC(C)=O)CO[C@@H]1C[C@@H]2O
inactive: M14 28.6 µM | HCT-116 30.5 µM | SF-539 32.1 µM | HOP-62 54 µM | HL-60 61.9 µM | MDA-MB-435 11.9 µM | DU-145 34.7 µM | HOP-92 > 100 µM | MOLT-4 73.3 µM | RXF 393 37.1 µM | SN12C 49.4 µM | CAKI-1 > 100 µM | SF-268 83.4 µM | COLO 205 26.5 µM | LOX IMVI 45.3 µM | NCI-H460 24.2 µM | OVCAR-5 63.5 µM | U-251 45.9 µM | MDA-MB-231 45.1 µM | SR 12.9 µM

O=[N+]([O-])C(=C/c1cccs1)/C(=C\c1cccs1)[N+](=O)[O-]
active: M14 1.04 µM | HCT-116 1.11 µM | SF-539 0.212 µM | HL-60 0.0246 µM | MDA-MB-435 0.441 µM | HOP-92 0.802 µM | MOLT-4 0.157 µM | RXF 393 0.157 µM | SN12C 0.547 µM | CAKI-1 0.465 µM | SF-268 0.861 µM | COLO 205 0.429 µM | LOX IMVI 0.209 µM | NCI-H460 0.597 µM | U-251 0.397 µM | MDA-MB-231 0.44 µM | SR 0.0719 µM
inactive: HOP-62 2.47 µM | DU-145 1.43 µM | OVCAR-5 1.68 µM

COC(=O)Cc1c(/C=C/C(C)(C)n2cnc(CCN3C(=O)CCC3=O)c2)[nH]c2ccccc12
inactive: M14 > 100 µM | HCT-116 > 100 µM | SF-539 > 100 µM | HL-60 > 100 µM | MDA-MB-435 > 100 µM | DU-145 > 100 µM | HOP-92 53.6 µM | MOLT-4 57.3 µM | RXF 393 36.3 µM | SN12C > 100 µM | CAKI-1 > 100 µM | SF-268 59.6 µM | COLO 205 > 100 µM | LOX IMVI > 100 µM | NCI-H460 > 100 µM | OVCAR-5 > 100 µM | U-251 > 100 µM | MDA-MB-231 > 100 µM | SR 61.4 µM

CS(=O)(=O)CS(=O)(=O)OCCCl
inactive: M14 191 µM | HCT-116 166 µM | SF-539 50.4 µM | HOP-62 43.3 µM | HL-60 136 µM | MDA-MB-435 991 µM | DU-145 199 µM | HOP-92 119 µM | MOLT-4 96.2 µM | RXF 393 163 µM | SN12C 188 µM | CAKI-1 207 µM | SF-268 47.9 µM | COLO 205 276 µM | LOX IMVI 37.8 µM | NCI-H460 83.6 µM | OVCAR-5 621 µM | U-251 72.3 µM | MDA-MB-231 296 µM | SR 15.8 µM

O=C(Nc1cccc2cnccc12)c1cc2c(cc1Cl)Sc1nccn1S2(=O)=O
inactive: M14 > 100 µM | HCT-116 4.74 µM | SF-539 14.6 µM | HOP-62 14 µM | HL-60 4.62 µM | MDA-MB-435 6.76 µM | DU-145 13.6 µM | HOP-92 21.4 µM | MOLT-4 12.9 µM | RXF 393 8.2 µM | SN12C 14.4 µM | CAKI-1 25.8 µM | SF-268 16.2 µM | COLO 205 15.3 µM | LOX IMVI 5.65 µM | NCI-H460 7.82 µM | OVCAR-5 25.2 µM | U-251 10.4 µM | MDA-MB-231 14.9 µM | SR 3.28 µM

CSC1=NC(=O)CCN1C1OCC(OC(C)=O)C(OC(C)=O)C1OC(C)=O (centres undefined)
inactive: M14 > 10 µM | HCT-116 5.45 µM | SF-539 12.1 µM | HOP-62 18.7 µM | HL-60 2.99 µM | MDA-MB-435 17.9 µM | DU-145 19.9 µM | HOP-92 14.8 µM | MOLT-4 4.66 µM | RXF 393 15.8 µM | SN12C 20.7 µM | CAKI-1 24.7 µM | SF-268 16.9 µM | COLO 205 23.9 µM | LOX IMVI > 10 µM | NCI-H460 10.4 µM | OVCAR-5 19.6 µM | U-251 15.8 µM | MDA-MB-231 12.4 µM | SR 4.51 µM

CSC(=O)/C=C1\SS/C(=C\C(=O)SC)S1
active: HL-60 1.12 µM
inactive: M14 2.09 µM | HCT-116 1.69 µM | SF-539 2.72 µM | HOP-62 7.35 µM | MDA-MB-435 2.29 µM | DU-145 10.5 µM | HOP-92 2.83 µM | MOLT-4 1.77 µM | RXF 393 1.24 µM | SN12C 1.82 µM | CAKI-1 1.39 µM | SF-268 2.49 µM | COLO 205 6.31 µM | LOX IMVI 1.55 µM | NCI-H460 2.26 µM | OVCAR-5 3.98 µM | U-251 2.14 µM | MDA-MB-231 2.07 µM | SR 1.96 µM
